Test results from patent US9884839B2, “Inhibitors of 17Beta-hydroxysteroid dehydrogenases type 1 and type 2” (ElexoPharm GmbH, priority 2014, dated 2018).
“And” between values parts separate entries of the source, which are not always exact repeats. Identical values can stand only once. Like-named read-outs stand apart in the source and are kept apart here.

Assays:
human 17β-HSD1 = target: T1, human 17β-HSD1 (Homo sapiens, UniProt P14061); test: Inhibition of human 17β-HSD1 (conversion of [3H]-E1 to E2, HPLC radioflow detection); type: biochemical; conditions: for inhibition at 0.1 µM: read-out: % inhibition h17β-HSD1 @ 100 nM, compound 100 nM; for inhibition at 1 µM: read-out: % inhibition h17β-HSD1 @ 1 μM
T1 construct: For the partial purification of 17β-HSD1, the cytosolic fraction was precipitated with ammonium sulfate; from tissue; host or cells: human placenta, cytosolic fraction, ammonium sulfate precipitate
T1 sequence (P14061 1-328): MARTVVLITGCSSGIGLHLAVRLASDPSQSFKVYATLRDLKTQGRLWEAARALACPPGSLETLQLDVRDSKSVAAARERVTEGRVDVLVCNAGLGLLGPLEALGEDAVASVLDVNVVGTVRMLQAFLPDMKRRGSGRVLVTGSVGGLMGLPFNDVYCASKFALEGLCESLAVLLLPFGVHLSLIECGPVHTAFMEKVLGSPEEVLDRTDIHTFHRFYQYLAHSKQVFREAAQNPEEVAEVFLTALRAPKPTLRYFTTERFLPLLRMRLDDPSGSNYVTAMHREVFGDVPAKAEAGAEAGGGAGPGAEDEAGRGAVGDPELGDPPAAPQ

mouse 17β-HSD2 = target: T2, mouse 17β-HSD2 (Mus musculus, UniProt P51658); test: Inhibition of mouse 17β-HSD2 (liver microsomal fraction); type: biochemical; conditions: for IC50: read-out: IC50 m17β-HSD2
T2 construct: The pellet fractions containing the microsomal 17β-HSD2 were used for the determination of E1 formation; from tissue; host or cells: mouse liver, microsomal fraction
T2 sequence (P51658 1-381): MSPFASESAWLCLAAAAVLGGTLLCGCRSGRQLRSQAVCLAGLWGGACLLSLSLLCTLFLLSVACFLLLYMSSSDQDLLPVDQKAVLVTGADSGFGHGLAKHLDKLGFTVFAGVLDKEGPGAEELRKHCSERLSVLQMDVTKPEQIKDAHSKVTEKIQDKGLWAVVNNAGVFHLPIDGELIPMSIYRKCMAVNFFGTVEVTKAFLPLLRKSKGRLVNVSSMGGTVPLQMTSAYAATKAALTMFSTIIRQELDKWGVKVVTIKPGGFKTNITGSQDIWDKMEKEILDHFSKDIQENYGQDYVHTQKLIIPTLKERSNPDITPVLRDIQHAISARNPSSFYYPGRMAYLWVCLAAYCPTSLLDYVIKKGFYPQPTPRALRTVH

mouse 17β-HSD1 = target: T3, mouse 17β-HSD1 (Mus musculus, UniProt P51656); test: Inhibition of mouse 17β-HSD1 (recombinant, HEK293 lysate); type: biochemical
T3 construct: made in house; host or cells: HEK293 cells, transient transfection; 1,000 g supernatant of the cell lysate
T3 sequence (P51656 1-344): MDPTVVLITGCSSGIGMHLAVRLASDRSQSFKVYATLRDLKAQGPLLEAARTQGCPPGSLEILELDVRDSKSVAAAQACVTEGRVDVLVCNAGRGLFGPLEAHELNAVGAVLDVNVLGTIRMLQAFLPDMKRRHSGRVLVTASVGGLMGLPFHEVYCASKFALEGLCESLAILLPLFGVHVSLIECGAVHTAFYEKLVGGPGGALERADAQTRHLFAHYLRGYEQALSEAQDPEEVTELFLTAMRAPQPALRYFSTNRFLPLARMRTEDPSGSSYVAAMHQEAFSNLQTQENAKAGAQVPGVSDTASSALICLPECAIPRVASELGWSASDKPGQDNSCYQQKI

human 17β-HSD2 = target: T4, human 17β-HSD2 (Homo sapiens, UniProt P37059); test: Inhibition of human 17β-HSD2 (conversion of [3H]-E2 to E1); type: biochemical; conditions: for inhibition at 1 µM: read-out: % inhibition h17β-HSD2 @ 1 μM; for IC50: read-out: IC50 [nM] h17β-HSD2
T4 construct: 17β-HSD2 was obtained from the microsomal fraction; from tissue; host or cells: human placenta, microsomal fraction
T4 sequence (P37059 1-387): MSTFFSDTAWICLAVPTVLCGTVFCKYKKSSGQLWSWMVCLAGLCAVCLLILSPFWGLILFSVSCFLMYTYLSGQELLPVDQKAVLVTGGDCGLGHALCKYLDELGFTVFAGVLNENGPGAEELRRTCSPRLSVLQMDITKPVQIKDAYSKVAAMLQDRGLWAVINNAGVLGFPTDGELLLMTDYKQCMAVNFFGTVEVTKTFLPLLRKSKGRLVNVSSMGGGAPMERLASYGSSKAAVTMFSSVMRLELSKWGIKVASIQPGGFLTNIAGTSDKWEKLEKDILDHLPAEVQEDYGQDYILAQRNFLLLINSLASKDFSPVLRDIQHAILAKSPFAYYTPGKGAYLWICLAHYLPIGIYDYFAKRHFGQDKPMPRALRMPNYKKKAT

rat 17β-HSD1 = target: T5, rat 17β-HSD1 (Rattus norvegicus, UniProt P51657); test: Inhibition of rat 17β-HSD1 (recombinant, HEK293 lysate); type: biochemical; conditions: for inhibition at […] / % Inhibition r17β-HSD1: Cmpd conc. 250 nM; for inhibition at 5 µM: Cmpd conc. 5000 nM
T5 construct: made in house; host or cells: HEK293 cells, transient transfection; 1,000 g supernatant of the cell lysate
T5 sequence (P51657 1-344): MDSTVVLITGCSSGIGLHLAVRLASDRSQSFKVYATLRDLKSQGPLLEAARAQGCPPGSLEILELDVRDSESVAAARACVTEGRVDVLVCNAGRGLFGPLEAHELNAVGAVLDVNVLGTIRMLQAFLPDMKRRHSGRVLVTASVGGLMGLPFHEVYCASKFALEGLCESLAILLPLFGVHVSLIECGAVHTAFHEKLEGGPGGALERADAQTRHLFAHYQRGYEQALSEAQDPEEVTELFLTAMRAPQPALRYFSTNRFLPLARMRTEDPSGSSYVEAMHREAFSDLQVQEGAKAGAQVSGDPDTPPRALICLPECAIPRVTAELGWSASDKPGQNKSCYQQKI

rat 17β-HSD2 = target: T6, rat 17β-HSD2 (Rattus norvegicus, UniProt Q62730); test: Inhibition of rat 17β-HSD2 (liver microsomal fraction); type: biochemical
T6 construct: The pellet fractions containing the microsomal 17β-HSD2 were used for the determination of E1 formation; from tissue; host or cells: rat liver, microsomal fraction
T6 sequence (Q62730 1-381): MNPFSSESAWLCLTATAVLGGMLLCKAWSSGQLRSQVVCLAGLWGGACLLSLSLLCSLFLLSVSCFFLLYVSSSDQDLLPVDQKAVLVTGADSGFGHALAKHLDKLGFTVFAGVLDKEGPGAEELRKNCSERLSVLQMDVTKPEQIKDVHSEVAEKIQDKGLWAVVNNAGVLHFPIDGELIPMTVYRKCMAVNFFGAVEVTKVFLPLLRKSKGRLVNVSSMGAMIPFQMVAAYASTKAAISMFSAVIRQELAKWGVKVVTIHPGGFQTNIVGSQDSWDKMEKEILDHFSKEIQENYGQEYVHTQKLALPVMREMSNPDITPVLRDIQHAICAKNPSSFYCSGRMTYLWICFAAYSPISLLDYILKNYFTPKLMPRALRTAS

in vitro = conditions: human, pooled human liver S9 fraction
[1] = human liver S9, 1 mg/mL; unit not given
[2] = read-out: % inhibition m17β-HSD2 @ 1 μM
[3] = read-out: % inhibition m17β-HSD1 @ 1 μM
[4] = read-out: % Inhibition r17β-HSD1
[5] = read-out: % Inhibition r17β-HSD2
[6] = human placental cytosolic enzyme, E1 500 nM, NADH, Tables 1, 4-11, read-out: IC50 [nM] h17β-HSD1
[7] = read-out: Inhibition @ 1 μM m17β-HSD2
[8] = read-out: Inhibition @ 1 μM m17β-HSD1

SMILES	inhibition at 1 µM (mouse 17β-HSD1; [3])	inhibition at […] (rat 17β-HSD1; [4])	inhibition at […] (rat 17β-HSD2; [5])	inhibition at 1 µM (mouse 17β-HSD2; [7])	inhibition at 1 µM (mouse 17β-HSD1; [8])	IC50 (human 17β-HSD2)	further results
O=C(c1ccc(-c2ccc(F)cc2F)s1)c1cccc(O)c1F [C, reference compound]	18%	35%	20%				inhibition at 0.1 µM (human 17β-HSD1): 92%; inhibition at 1 µM (mouse 17β-HSD2; [2]): 75%; inhibition at 0.1 µM (human 17β-HSD2; read-out: % inhibition h17β-HSD2 @ 100 nM): 87%
O=C(c1ccc(Br)s1)c1c(F)ccc(O)c1F [Compound 1e, (5-Bromo-thiophen-2-yl)-(2,6-difluoro-3-hydroxy-phenyl)-methanone]	5%	5%	60%				inhibition at 0.1 µM (human 17β-HSD1): 85%; inhibition at 1 µM (mouse 17β-HSD2; [2]): 80%; inhibition at 0.1 µM (human 17β-HSD2; read-out: IC50 [nM] or % inhibition h17β-HSD1 (second column so headed, Table 9): % @ 100 nM): 71%
O=C(c1ccc(-c2ccc(F)cc2F)s1)c1c(F)ccc(O)c1F [Compound 10, (2,6-Difluoro-3-hydroxy-phenyl)-[5-(2,4-difluoro-phenyl)-thiophen-2-yl]-methan-one]		63%	66%	67%	41%		IC50 (human 17β-HSD1; [6]): 3.5 nM; inhibition at 1 µM (mouse 17β-HSD1; Tables 4 and 6, no % sign and concentration not given, Table 1 lists these compounds as inhibition @ 1 μM, read-out: IC50 [nM] or % inhibition m17β-HSD1 (bare number, kind not marked)): 41%
O=C(c1ccc(-c2ccc(O)c(Cl)c2)s1)c1c(F)ccc(O)c1F [Compound 20, [5-(3-Chloro-4-hydroxy-phenyl)-thiophen-2-yl]-(2,6-difluoro-3-hydroxy-phenyl)-methanone]	50%			82%	50%	20 nM	IC50 (human 17β-HSD1; [6]): 0.5 nM; inhibition at 1 µM (mouse 17β-HSD2; [2]): 95%; inhibition at 0.5 µM (rat 17β-HSD1; Cmpd conc. 500 nM, read-out: % Inhibition r17β-HSD1): 48%; inhibition at 0.5 µM (rat 17β-HSD2; [5]): 98%
O=C(c1ccc(-c2cc(Cl)c(O)c(Cn3ccnn3)c2)s1)c1c(F)ccc(O)c1F [Compound 32, [5-(3-Chloro-4-hydroxy-5-[1,2,3]triazol-1-ylmethyl-phenyl)-thiophen-2-yl]-(2,6-difluoro-3-hydroxy-phenyl)-methanone]			66%				inhibition at 1 µM (human 17β-HSD1): 37%; Inhibition @ 1 μM m17β-HSD1 (mouse 17β-HSD1; compound 1 μM, Table 1, bare numbers): n.i.^c; inhibition at 1 µM (human 17β-HSD2): 30%; % Inhibition r17β-HSD1 (rat 17β-HSD1): n.i.^c
O=C(c1ccc(-c2cccc(NS(=O)(=O)c3ccc(Br)cc3OC(F)(F)F)c2)s1)c1cc(F)c(F)c(O)c1F [Compound 36, 4-Bromo-N-{3-[5-(2,4,5-trifluoro-3-hydroxybenzoyl)thiophen-2-yl]phenyl}-2-trifluoromethoxybenzenesulfonamide]	68%	50%	100%		68%		IC50 (human 17β-HSD1): 2.4 nM
O=C(c1ccc(-c2cccc(NS(=O)(=O)c3ccccc3OC(F)(F)F)c2)s1)c1cc(F)c(F)c(O)c1F [Compound 37, N-{3-[5-(2,4,5-Trifluoro-3-hydroxybenzoyl)thiophen-2-yl]phenyl}-2-trifluoromethoxybenzenesulfonamide]	55%	29%	93%		55%		IC50 (human 17β-HSD1; [6]): 5.8 nM; IC50 (mouse 17β-HSD2): 79 nM and 22 nM
O=C(c1ccc(-c2cccc(NS(=O)(=O)c3ccccc3C(F)(F)F)c2)s1)c1cc(F)c(F)c(O)c1F [Compound 38, N-{3-[5-(2,4,5-Trifluoro-3-hydroxybenzoyl)thiophen-2-yl]phenyl}-2-trifluoromethylbenzenesulfonamide]	81%	41%	96%		81%		IC50 (human 17β-HSD1): 4.8 nM

The next lines start with results.

inhibition at 1 µM (mouse 17β-HSD1; [3])	inhibition at […] (rat 17β-HSD1; [4])	inhibition at […] (rat 17β-HSD2; [5])	inhibition at 1 µM (mouse 17β-HSD2; [7])	inhibition at 1 µM (mouse 17β-HSD1; [8])	IC50 (human 17β-HSD2)	SMILES	further results
	26%		44%	58%		COc1ccc(-c2ccc(C(=O)c3c(F)ccc(O)c3F)s2)cc1S(=O)(=O)N1CCOCC1 [Compound 19, (2,6-Difluoro-3-hydroxy-phenyl)-{5-[4-methoxy-3-(morpholine-4-sulfonyl)-phen-yl]-thiophen-2-yl}-methanone]	inhibition at 1 µM (human 17β-HSD1): 79%; inhibition at 1 µM (human 17β-HSD2): 85%; % Inhibition r17β-HSD2 (rat 17β-HSD2): n.i.^c
				23%	39 nM	O=C(c1ccc(-c2cc(Cl)c(O)c(Cl)c2)s1)c1c(F)ccc(O)c1F [Compound 23, [5-(3,5-Dichloro-4-hydroxy-phenyl)-thiophen-2-yl]-(2,6-difluoro-3-hydroxy-phen-yl)-methanone]	IC50 (human 17β-HSD1; read-out: IC50 [nM] h17β-HSD1): 2.4 nM; IC50 (mouse 17β-HSD2): 209 nM; half-life at 1 µM (in vitro): 2.16 h; inhibition at 5 µM (rat 17β-HSD1; [4]): 59%; CLint [1]: 5.4
			40%	16%	11 nM	CC(=O)N1CCN(Cc2cc(-c3ccc(C(=O)c4c(F)ccc(O)c4F)s3)cc(Cl)c2O)CC1 [Compound 29, 1-(4-{3-Chloro-5-[5-(2,6-difluoro-3-hydroxy-benzoyl)-thiophen-2-yl]-2-hydroxy-benzyl}-piperazin-1-yl)-ethanone]	IC50 (human 17β-HSD1; read-out: IC50 [nM] h17β-HSD1): 2.1 nM; % Inhibition r17β-HSD1 (rat 17β-HSD1): n.i.^c; % Inhibition r17β-HSD2 (rat 17β-HSD2): n.i.^c
			22%	18%	384 nM	Cc1cc(-c2ccc(C(=O)c3cccc(O)c3)s2)ccc1O [Compound F1, reference compound]	IC50 (human 17β-HSD1; read-out: IC50 [nM] h17β-HSD1): 8 nM; half-life at 1 µM (in vitro): 0.06 h; inhibition at 5 µM (rat 17β-HSD1; [4]): 48%; CLint [1]: 193.8
